Measurements from patent US8735601B2, “Pentamethine cyanine fluorescent dye with N-substituting at β-position of conjugated chain” (Dalian University of Technology, priority 2010, dated 2014).
Each block holds one molecule with its values, some of them ahead of it.

Legend:
calf thymus DNA (ct-DNA) = experiment: Titration of dye solution with calf thymus DNA, fluorescence and UV absorption; format: binding; details: dye 1×10^−6 M, PBS pH 7.4
Protocol: The solutions of compounds Ha to IIc in a concentration of 1×10^−6M (10 mM PBS buffer (pH=7.4) was used as solvent) was prepared, and 3 ml of the each dye solution was added into a cuvette separately. Then, an aqueous calf thymus DNA stock solution was prepared, the concentration of the calf thymus DNA stock solution was determined as 1.5×10^−3 mM by the absorbance at 260 nm on UV absorption spectrophotometer. The calf thymus DNA stock solution was added dropwise into each of the dye solution. The fluorescence intensity of the dye was measured each 5 minutes after addition of […] for fluorescence becoming stable, on UV-visible spectrophotometer (Mode: Hp8453) and fluorescence spectrophotometer (Mode: FP-6500).
From the interaction results of three dyes with calf thymus DNA, it can be known that no evident fluorescence increase was found after the interaction of the dye with the DNA. FIGS. 4 and 5 were titration figures of the interaction of dye lib with calf thymus DNA. […] All of these indicated DNA could be differentiated from protein by dyes IIa, IIb and IIc.

[1] = molecular target: bovine serum albumin (BSA) (Bos taurus, UniProt P02769); experiment: Titration of dye solution with BSA, fluorescence and UV absorption; format: binding; details: dye solution 1 μM, PBS pH 7.4
Chain of bovine serum albumin (BSA) (P02769 25-607): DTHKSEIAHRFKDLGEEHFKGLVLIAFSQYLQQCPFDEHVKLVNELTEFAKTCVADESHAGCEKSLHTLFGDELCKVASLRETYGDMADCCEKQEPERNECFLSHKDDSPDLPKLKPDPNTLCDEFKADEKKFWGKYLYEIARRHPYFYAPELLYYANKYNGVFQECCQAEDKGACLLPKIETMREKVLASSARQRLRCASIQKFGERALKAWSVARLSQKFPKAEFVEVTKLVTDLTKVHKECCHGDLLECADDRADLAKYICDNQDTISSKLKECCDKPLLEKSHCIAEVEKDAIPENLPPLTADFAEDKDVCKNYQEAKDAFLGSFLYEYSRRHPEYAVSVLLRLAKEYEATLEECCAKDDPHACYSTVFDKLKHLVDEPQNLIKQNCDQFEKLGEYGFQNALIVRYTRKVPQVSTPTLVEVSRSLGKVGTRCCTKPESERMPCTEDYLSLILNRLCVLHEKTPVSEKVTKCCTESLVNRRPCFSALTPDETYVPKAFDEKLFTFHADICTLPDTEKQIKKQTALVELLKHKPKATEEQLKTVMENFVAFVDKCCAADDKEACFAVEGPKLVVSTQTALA
Protocol: The solutions of compounds Ha to IIc in a concentration of 1×10^−6M (10 mM PBS buffer (pH=7.4) was used as solvent) was prepared, and 3 ml of the each dye solution was added into a cuvette, respectively. Then, an aqueous bovine serum albumin (BSA) stock solution with the concentration of […] (750 μM) was added dropwise into each of the dye solution. The fluorescence intensity of the dye was measured each 5 minutes after addition of BSA for fluorescence becoming stable, on UV-visible spectrophotometer (Mode: Hp8453) and fluorescence spectrophotometer (Mode: FP-6500).
Especially for dyes IIb and IIc, the fluorescence intensity thereof was increased linearly with addition of BSA to arrive at more than 30 folds.

[2] = Absorption and emission spectra of dyes in different solvents; format: physicochemical; set-up: key to Δλ1 / Δλ2: Stokes shift in nm; ε1 (molar extinction coefficient) / ε2 (molar extinction coefficient): scale not given here; details: for Δλ1: Stokes shift to absorption peak 1; for Δλ2: Stokes shift to absorption peak 2
Text: In the present invention, compounds IIa to IIg were synthesized based on compound II, and their spectral properties were investigated. Compared with the traditional pentamethine cyanine dye, for the novel pentamethine cyanine dye with N-substituting at β-position (deviated position), it was observed that, evident blue shift of absorption and emission wavelengths occurred, absorption wavelength blue shifted even largely than that of emission wavelength, absorption spectrum and fluorescence spectrum were no longer mirror-symmetric and had two absorption peaks and a single emission peak, and larger Stokes shift (minimum 60 and 150 nm, and maximum 90 and 230 nm) appeared.

[3] = Measurement of fluorescence quantum yield (Rhodamine B in ethanol as reference); format: physicochemical

change of fluorescence intensity by interaction with protein (BSA) [1]: largely increased
Δλ1 ([2]; solvent DCM): 96
Δλ1 ([2]; solvent DMSO): 97
Δλ1 ([2]; solvent Ethanol): 97
Δλ1 ([2]; solvent Methanol): 97
Δλ1 ([2]; solvent THF): 88
Δλ1 ([2]; solvent Water): 98
Δλ2 ([2]; solvent DCM): 168
Δλ2 ([2]; solvent DMSO): 154
Δλ2 ([2]; solvent Ethanol): 167
Δλ2 ([2]; solvent Methanol): 169
Δλ2 ([2]; solvent THF): 155
Δλ2 ([2]; solvent Water): 168
ε1 (molar extinction coefficient) ([2]; solvent DCM): 2.8 cm^−1M
ε2 (molar extinction coefficient) ([2]; solvent DCM): 2.1 cm^−1M
λabs1 ([2]; solvent DCM): 526 nm
λbs2 ([2]; solvent DCM): 454 nm
λem ([2]; solvent DCM): 622 nm
ε1 (molar extinction coefficient) ([2]; solvent DMSO): 2.5 cm^−1M
ε2 (molar extinction coefficient) ([2]; solvent DMSO): 2.1 cm^−1M
λabs1 ([2]; solvent DMSO): 515 nm
λbs2 ([2]; solvent DMSO): 458 nm
λem ([2]; solvent DMSO): 612 nm
ε1 (molar extinction coefficient) ([2]; solvent Ethanol): 2.8 cm^−1M
ε2 (molar extinction coefficient) ([2]; solvent Ethanol): 2.3 cm^−1M
λabs1 ([2]; solvent Ethanol): 521 nm
λbs2 ([2]; solvent Ethanol): 451 nm
λem ([2]; solvent Ethanol): 618 nm
ε1 (molar extinction coefficient) ([2]; solvent Methanol): 3.1 cm^−1M
ε2 (molar extinction coefficient) ([2]; solvent Methanol): 2.2 cm^−1M
λabs1 ([2]; solvent Methanol): 522 nm
λbs2 ([2]; solvent Methanol): 450 nm
λem ([2]; solvent Methanol): 619 nm
ε1 (molar extinction coefficient) ([2]; solvent THF): 3.1 cm^−1M
ε2 (molar extinction coefficient) ([2]; solvent THF): 1.9 cm^−1M
λabs1 ([2]; solvent THF): 517 nm
λbs2 ([2]; solvent THF): 450 nm
λem ([2]; solvent THF): 605 nm
ε1 (molar extinction coefficient) ([2]; solvent Water): 1.8 cm^−1M
ε2 (molar extinction coefficient) ([2]; solvent Water): 1.9 cm^−1M
λabs1 ([2]; solvent Water): 517 nm
λbs2 ([2]; solvent Water): 447 nm
λem ([2]; solvent Water): 615 nm
Φ1 (fluorescence quantum yield) ([3]; solvent DCM): 0.124
Φ2 (fluorescence quantum yield) ([3]; solvent DCM): 0.061
Φ1 (fluorescence quantum yield) ([3]; solvent DMSO): 0.005
Φ2 (fluorescence quantum yield) ([3]; solvent DMSO): 0.005
Φ1 (fluorescence quantum yield) ([3]; solvent Ethanol): 0.014
Φ2 (fluorescence quantum yield) ([3]; solvent Ethanol): 0.013
Φ1 (fluorescence quantum yield) ([3]; solvent Methanol): 0.007
Φ2 (fluorescence quantum yield) ([3]; solvent Methanol): 0.008
Φ1 (fluorescence quantum yield) ([3]; solvent THF): 0.109
Φ2 (fluorescence quantum yield) ([3]; solvent THF): 0.099
Φ1 (fluorescence quantum yield) ([3]; solvent Water): 0.001
Φ2 (fluorescence quantum yield) ([3]; solvent Water): 0.001
SMILES: CCN1/C(=C/C=C/C(=C/C2=[N+](CC)c3ccccc3C2(C)C)N(CCO)CCO)C(C)(C)c2ccccc21 [Dye IIc]
change of fluorescence by interaction with ct-DNA (calf thymus DNA (ct-DNA)): little fluorescence increase

change of fluorescence intensity by interaction with protein (BSA) ([1]; listed as Ha): largely increased
Δλ1 ([2]; solvent DCM): 63
Δλ1 ([2]; solvent DMSO): 75
Δλ1 ([2]; solvent Ethanol): 75
Δλ1 ([2]; solvent Methanol): 78
Δλ1 ([2]; solvent THF): 64
Δλ1 ([2]; solvent Water): 92
Δλ2 ([2]; solvent DCM): 191
Δλ2 ([2]; solvent DMSO): 189
Δλ2 ([2]; solvent Ethanol): 182
Δλ2 ([2]; solvent Methanol): 188
Δλ2 ([2]; solvent THF): 182
Δλ2 ([2]; solvent Water): 203
ε1 (molar extinction coefficient) ([2]; solvent DCM): 5.4 cm^−1M
ε2 (molar extinction coefficient) ([2]; solvent DCM): 1.6 cm^−1M
λabs1 ([2]; solvent DCM): 546 nm
λbs2 ([2]; solvent DCM): 418 nm
λem ([2]; solvent DCM): 609 nm
ε1 (molar extinction coefficient) ([2]; solvent DMSO): 4.9 cm^−1M
ε2 (molar extinction coefficient) ([2]; solvent DMSO): 1.7 cm^−1M
λabs1 ([2]; solvent DMSO): 533 nm
λbs2 ([2]; solvent DMSO): 419 nm
λem ([2]; solvent DMSO): 608 nm
ε1 (molar extinction coefficient) ([2]; solvent Ethanol): 4.8 cm^−1M
ε2 (molar extinction coefficient) ([2]; solvent Ethanol): 2.0 cm^−1M
λabs1 ([2]; solvent Ethanol): 527 nm
λbs2 ([2]; solvent Ethanol): 420 nm
λem ([2]; solvent Ethanol): 602 nm
ε1 (molar extinction coefficient) ([2]; solvent Methanol): 5.1 cm^−1M
ε2 (molar extinction coefficient) ([2]; solvent Methanol): 2.0 cm^−1M
λabs1 ([2]; solvent Methanol): 528 nm
λbs2 ([2]; solvent Methanol): 418 nm
λem ([2]; solvent Methanol): 606 nm
ε1 (molar extinction coefficient) ([2]; solvent THF): 4.8 cm^−1M
ε2 (molar extinction coefficient) ([2]; solvent THF): 1.6 cm^−1M
λabs1 ([2]; solvent THF): 526 nm
λbs2 ([2]; solvent THF): 408 nm
λem ([2]; solvent THF): 590 nm
ε1 (molar extinction coefficient) ([2]; solvent Water): 3.6 cm^−1M
ε2 (molar extinction coefficient) ([2]; solvent Water): 1.7 cm^−1M
λabs1 ([2]; solvent Water): 527 nm
λbs2 ([2]; solvent Water): 416 nm
λem ([2]; solvent Water): 619 nm
Φ1 (fluorescence quantum yield) ([3]; solvent DCM): 0.115
Φ2 (fluorescence quantum yield) ([3]; solvent DCM): 0.032
Φ1 (fluorescence quantum yield) ([3]; solvent DMSO): 0.020
Φ2 (fluorescence quantum yield) ([3]; solvent DMSO): 0.009
Φ1 (fluorescence quantum yield) ([3]; solvent Ethanol): 0.014
Φ2 (fluorescence quantum yield) ([3]; solvent Ethanol): 0.009
Φ1 (fluorescence quantum yield) ([3]; solvent Methanol): 0.007
Φ2 (fluorescence quantum yield) ([3]; solvent Methanol): 0.004
Φ1 (fluorescence quantum yield) ([3]; solvent THF): 0.053
Φ2 (fluorescence quantum yield) ([3]; solvent THF): 0.008
Φ1 (fluorescence quantum yield) ([3]; solvent Water): 0.002
Φ2 (fluorescence quantum yield) ([3]; solvent Water): 0.001
SMILES: CCN1/C(=C/C=C/C(N)=C/C2=[N+](CC)c3ccccc3C2(C)C)C(C)(C)c2ccccc21 [Dye IIa]
change of fluorescence by interaction with ct-DNA (calf thymus DNA (ct-DNA); listed as Ha): little fluorescence increase

change of fluorescence intensity by interaction with protein (BSA) [1]: largely increased
Δλ1 ([2]; solvent DCM): 79
Δλ1 ([2]; solvent DMSO): 91
Δλ1 ([2]; solvent Ethanol): 91
Δλ1 ([2]; solvent Methanol): 89
Δλ1 ([2]; solvent THF): 82
Δλ1 ([2]; solvent Water): 103
Δλ2 ([2]; solvent DCM): 167
Δλ2 ([2]; solvent DMSO): 170
Δλ2 ([2]; solvent Ethanol): 177
Δλ2 ([2]; solvent Methanol): 175
Δλ2 ([2]; solvent THF): 158
Δλ2 ([2]; solvent Water): 190
ε1 (molar extinction coefficient) ([2]; solvent DCM): 3.4 cm^−1M
ε2 (molar extinction coefficient) ([2]; solvent DCM): 1.7 cm^−1M
λabs1 ([2]; solvent DCM): 517 nm
λbs2 ([2]; solvent DCM): 429 nm
λem ([2]; solvent DCM): 596 nm
ε1 (molar extinction coefficient) ([2]; solvent DMSO): 3.0 cm^−1M
ε2 (molar extinction coefficient) ([2]; solvent DMSO): 2.3 cm^−1M
λabs1 ([2]; solvent DMSO): 515 nm
λbs2 ([2]; solvent DMSO): 436 nm
λem ([2]; solvent DMSO): 606 nm
ε1 (molar extinction coefficient) ([2]; solvent Ethanol): 3.3 cm^−1M
ε2 (molar extinction coefficient) ([2]; solvent Ethanol): 2.3 cm^−1M
λabs1 ([2]; solvent Ethanol): 521 nm
λbs2 ([2]; solvent Ethanol): 435 nm
λem ([2]; solvent Ethanol): 612 nm
ε1 (molar extinction coefficient) ([2]; solvent Methanol): 3.1 cm^−1M
ε2 (molar extinction coefficient) ([2]; solvent Methanol): 2.4 cm^−1M
λabs1 ([2]; solvent Methanol): 519 nm
λbs2 ([2]; solvent Methanol): 433 nm
λem ([2]; solvent Methanol): 608 nm
ε1 (molar extinction coefficient) ([2]; solvent THF): 3.6 cm^−1M
ε2 (molar extinction coefficient) ([2]; solvent THF): 2.2 cm^−1M
λabs1 ([2]; solvent THF): 503 nm
λbs2 ([2]; solvent THF): 427 nm
λem ([2]; solvent THF): 585 nm
ε1 (molar extinction coefficient) ([2]; solvent Water): 2.1 cm^−1M
ε2 (molar extinction coefficient) ([2]; solvent Water): 1.7 cm^−1M
λabs1 ([2]; solvent Water): 517 nm
λbs2 ([2]; solvent Water): 430 nm
λem ([2]; solvent Water): 620 nm
Φ1 (fluorescence quantum yield) ([3]; solvent DCM): 0.114
Φ2 (fluorescence quantum yield) ([3]; solvent DCM): 0.100
Φ1 (fluorescence quantum yield) ([3]; solvent DMSO): 0.009
Φ2 (fluorescence quantum yield) ([3]; solvent DMSO): 0.008
Φ1 (fluorescence quantum yield) ([3]; solvent Ethanol): 0.019
Φ2 (fluorescence quantum yield) ([3]; solvent Ethanol): 0.017
Φ1 (fluorescence quantum yield) ([3]; solvent Methanol): 0.009
Φ2 (fluorescence quantum yield) ([3]; solvent Methanol): 0.008
Φ1 (fluorescence quantum yield) ([3]; solvent THF): 0.085
Φ2 (fluorescence quantum yield) ([3]; solvent THF): 0.075
Φ1 (fluorescence quantum yield) ([3]; solvent Water): 0.002
Φ2 (fluorescence quantum yield) ([3]; solvent Water): 0.002
SMILES: CCN1/C(=C/C=C/C(=C/C2=[N+](CC)c3ccccc3C2(C)C)NCCO)C(C)(C)c2ccccc21 [Dye IIb]
change of fluorescence by interaction with ct-DNA (calf thymus DNA (ct-DNA)): little fluorescence increase
